Results reported in US20090269309A1, “Retinoic acid stimulates differentiation of pancreatic progenitor cells into insulin producing cells” (priority 2004, published 2009).
Several values for one entry are separate records, joined by “and”; a condition that tells them apart may be missing. Equal values may be shown once.

System: mouse embryonic day (e) 10 dorsal pancreatic buds
Test: Culture of e10 dorsal pancreatic bud explants with or without RA, endocrine cells scored by immunohistochemistry
Assay type: cell-based
Text: From mating between C57BL/6 (wild-type) mice, pregnant females were sacrificed ten days after the appearance of a vaginal plug, and embryos collected. The ten-day-old embryos were dissected in L15 medium (Gibco) using forceps and tungsten needles. The L15 medium is […]
At this embryonic stage the dorsal pancreatic bud can be seen as a round structure forming from the gut endoderm that can be dissected out from the surrounding tissues (see FIG. 3). Using a mouth pipette individual isolated pancreatic buds were placed on 0.4 μm, pore 3,28 12 mm Millicell-CM PICM01250 filters (Millipore) that were subsequently placed in a twenty-four well plate (Costar) where each well contained 400 μl culture medium, consisting of DMEM-glutamax1 (Gibco), 1×N2-supplement (Gibco) and PEST (Gibco).
The explants were cultured for six days in 37° C. and 5% CO2 in culture medium alone (control explants) or with 25 nM all-trans retinoic acid (Sigma) added to the medium.
After six days of culture the explants were washed twice in PBS, fixated in 4% PFA in PBS for 25 minutes followed by two more washes in PBS. Using a small pair of scissors the filter was cut around the explant and the filter piece with the explant attached to it was placed in Tissue Tek O.C.T. Compound 4583 (Sakura). In the Tissue Tek the explant was gently removed from the filter using tungsten needles. A small drop of Tissue Tek was applied on a glass slide (Menzel) and the explant was placed in the drop using forceps and tungsten needles. The glass slides were put on dry ice to freeze the drops and were then stored in −80° C.
The frozen explants were sectioned using a Cryostat into […] thick sections that were collected on Superfrost Plus glass slides (Menzel). All explants from one experiment were put on the same slides. The slides were placed in a hybridisation chamber and blocked with blocking solution, TBST (50 mMT nsHCl, pH7.4, 150 mM MaCl, 0,1% Triton X-100)+10% FCS (fetal calf serum), for one hour. After blocking, primary antibodies diluted in fresh blocking solution were added and the slides were incubated overnight at 4° C. The following primary antibodies were used: guinea-pig α insulin (Linco) diluted 1/200, rabbit α glucagon (Euro Diagnostica) diluted 1/1000 and rabbit anti-ngn3 (raised against a GST-ngn3 fusion protein by AgriSeraAB) diluted 1/400. The slides were washed 3×5 minutes in TBST before incubation with secondary antibodies; a guinea-pig alexa488 (Molecular Probes) diluted 1/1000 and α rabbitCy3 (Jackson) diluted 1/400, for one hour in room temperature. The slides were then washed again 3×5 minutes in TBST before they were mounted using Vectashield with DAPI (Vector). The slides were analysed using a Nikon fluorescence microscope. The cells stained for insulin and glucagos respectively were counted and divided by the total number of cells that was counted using the DAPI staining which stains DNA i.e. every cell nucleus.
To investigate a role for RA in pancreatic cell differentiation mouse embryonic day (e) 10 dorsal pancreatic buds, which primarily contain pancreatic stem cells and very few differentiated pancreatic cells, were cultured in serum free media with or without RA for six days. The in vitro cultured explants were then scored for the appearance of endocrine cells expressing glucagon and insulin by immunohistochemistry using antibodies specific for glucagon and insulin. In vitro cultivation in media alone generated a few glucagon-(˜10% of total cells) and insulin-positive (˜5% of total cells) cells but the majority of cells were of non-endocrine origin (FIGS. 1 A-C and data not shown). […] Moreover, RA preferentially stimulated the differentiation of insulin-positive cells, which increased ˜4.5 fold, whereas glucagon-positive cells increased only ˜1,5 fold (FIG. 1D-F).

CC1=C(/C=C/C(C)=C/C=C/C(C)=C/C(=O)O)C(C)(C)CCC1 [RA, all-trans retinoic acid]
increase in the number of ngn3-positive cells/total number of cells (25 nM RA, 2 and 4 days of culture, versus medium alone): five-fold increase | effect on the number of glucagon cells (25 nM RA, versus medium alone, N=6): No significant effect | increase in the number of insulin positive cells/total number of cells (25 nM all-trans RA, six days of culture, versus explants in medium alone): > 3 fold and ~4.5 fold | increase in endocrine cells (25 nM all-trans RA, six days, versus explants cultured in media alone): more than 2 fold | increase in glucagon-positive cells (25 nM all-trans RA, six days, versus media alone): ~1,5 fold | endocrine cells (glucagon- and insulin-positive) of total cells (25 nM all-trans RA, six days, media alone ~15%): ~37%
